For one data set, the system named is cardiac β-receptor. The data set is described as follows: cardiac β-receptor blocking activity: inhibition of isoprenalin tachycardia in wake rabbits. The conditions noted are these: for Heartbeat Frequency x ± sx / DE250: wake rabbits; for Heartbeat Frequency x ± sx: 30 min later isoprenalin i.v.; for DE250: interpolated dosage which limits the frequency increase to 250 beats/min; for LD50/DE250: ratio of mouse i.v. LD50 to rabbit i.v. DE250 (therapeutic breadth). As for the experimental part:
(§1) The following tests were carried out to determine (a) the toxicity and (b) the cardiac β-receptor blocking activity of certain test compounds by determining the inhibition of the heart beat frequency increase induced by intravenous administration of isoprenalin.
b. The β-receptor blocking activity of the test compounds was tested on wake rabbits weighing between 2 to 3.5 kg. and kept in wooden cages. EKG-electrodes were inserted into the hind quarters of the rabbits s.c. (II. lead) and the heart frequency was measured using an integrator (15 seconds) as a digital value. The test compounds were then infused through a small tube to the ear vein of the rabbits over a period of 15 minutes. 30 Minutes after the infusion isoprenalin (3,4-dihydroxy-α-[(isopropylamino)-methyl]-benzylalcohol) was injected intravenously at […].

Another data set can be described thus: in vivo. Conditions: iv, mouse, i.v. (tail vein), five male and five female mice per dosage, read-out: Acute Toxicity LD50 Mouse. As for the experimental part: as §1
a. […] The compounds, in dissolved form, were injected into the tail vein of five male and five female mice each in increasing dosages. The results (% of animals which died) were used, via programmed probability analysis, to determine the median lethal dosage (LD50).

For `CC(C)NCC(O)COc1cccc2ccccc12` (stereo not drawn) [Compound B, 1-Isopropylamino-3-(1-naphthoxy)-2-propanol, reference compound], the “Heartbeat Frequency x ± sx” value worked out at 342 ± 5 beats/min in the data set with cardiac β-receptor (0.01 mg/kg i.v. infusion); 309 ± 9 beats/min with cardiac β-receptor (0.1 mg/kg i.v. infusion); 259 ± 7 beats/min in the data set on cardiac β-receptor (0.25 mg/kg i.v. infusion); 248 ± 6 beats/min in the data set on cardiac β-receptor (0.5 mg/kg i.v. infusion); 210 ± 8 beats/min with cardiac β-receptor (1.0 mg/kg i.v. infusion); 191 ± 6 beats/min in the data set with cardiac β-receptor (4.0 mg/kg i.v. infusion). In the data set on cardiac β-receptor, this compound had a DE250 of 0.400 mg/kg i.v.

In the case of `CC(C)NCC(O)COc1cccc2nc[nH]c12` (stereo not drawn) [Compound I, 4-(3-Isopropylamino-2-hydroxy-propyloxy)-benzimidazole], the 50% lethal dose (LD50) in “in vivo” was 38 mg/kg. Besides, in the data set on cardiac β-receptor, the LD50/DE250 is recorded as 422. In addition, the “Heartbeat Frequency x ± sx” value turned out to be 300 ± 11 beats/min in the data set on cardiac β-receptor (0.01 mg/kg i.v. infusion); 292 ± 17 beats/min in the data set on cardiac β-receptor (0.05 mg/kg i.v. infusion); 239 ± 6 beats/min with cardiac β-receptor (0.1 mg/kg i.v. infusion); 228 ± 5 beats/min in the data set on cardiac β-receptor (0.5 mg/kg i.v. infusion); 218 ± 11 beats/min in the data set on cardiac β-receptor (1.0 mg/kg i.v. infusion); 219 ± 13 beats/min with cardiac β-receptor (5.0 mg/kg i.v. infusion). For the same compound, the DE250 with cardiac β-receptor was 0.09 mg/kg i.v.

For the compound `Cc1nc2cccc(OCC(O)CNC(C)(C)C)c2[nH]1` (stereo not drawn) [Compound IV, 2-Methyl-4-(3-tert.-butylamino-2-hydroxy-propyloxy)-benzimidazole], the LD50 in “in vivo” worked out at 34 mg/kg. In the data set on cardiac β-receptor, the LD50/DE250 came out at 425. For the same compound, the “Heartbeat Frequency x ± sx” value with cardiac β-receptor (0.01 mg/kg i.v. infusion) is given as 289 ± 18 beats/min; in the data set on cardiac β-receptor (0.05 mg/kg i.v. infusion), 255 ± 7 beats/min; in the data set with cardiac β-receptor (0.1 mg/kg i.v. infusion) it was 248 ± 7 beats/min; with cardiac β-receptor (0.5 mg/kg i.v. infusion), 224 ± 8 beats/min; with cardiac β-receptor (1.0 mg/kg i.v. infusion), 211 ± 5 beats/min; in the data set with cardiac β-receptor (5.0 mg/kg i.v. infusion), 232 ± 5 beats/min. Further, the DE250 in the data set with cardiac β-receptor amounted to 0.08 mg/kg i.v.

For the compound `CC(C)(C)NCC(O)COc1cccc2nc[nH]c12` (stereo not drawn) [Compound II, 4-(3-tert.-Butylamino-2-hydroxy-propyloxy)-benzimidazole], the LD50 in the data set “in vivo” is 28 mg/kg. Also, in the data set on cardiac β-receptor, the LD50/DE250 is listed as 560. The “Heartbeat Frequency x ± sx” value in the data set with cardiac β-receptor (0.01 mg/kg i.v. infusion) amounted to 286 ± 12 beats/min; in the data set with cardiac β-receptor (0.1 mg/kg i.v. infusion), 236 ± 6 beats/min; in the data set with cardiac β-receptor (1.0 mg/kg i.v. infusion), 244 ± 9 beats/min; with cardiac β-receptor (5.0 mg/kg i.v. infusion), 273 ± 11 beats/min. This compound also had a DE250 in the data set on cardiac β-receptor of 0.05 mg/kg i.v.

`Cc1nc2cccc(OCC(O)CNC(C)C)c2[nH]1` (stereo not drawn) [Compound III, 2-Methyl-4-(3-isopropylamino-2-hydroxy-propyloxy)-benzimidazole]: the LD50 in the data set “in vivo” came out at 29 mg/kg. In addition, in the data set on cardiac β-receptor, the LD50/DE250 came to 170. Further, the “Heartbeat Frequency x ± sx” value with cardiac β-receptor (0.01 mg/kg i.v. infusion) was 303 ± 17 beats/min; in the data set on cardiac β-receptor (0.05 mg/kg i.v. infusion) it was 318 ± 11 beats/min; in the data set on cardiac β-receptor (0.1 mg/kg i.v. infusion), 255 ± 9 beats/min; in the data set with cardiac β-receptor (1.0 mg/kg i.v. infusion), 234 ± 11 beats/min; in the data set with cardiac β-receptor (5.0 mg/kg i.v. infusion) it was 219 ± 14 beats/min. This compound also registered a DE250 in the data set on cardiac β-receptor of 0.17 mg/kg i.v.

With `CC(=O)Nc1ccc(OCC(O)CNC(C)C)cc1` (stereo not drawn) [Compound A, 4-(2-Hydroxy-3-isopropylamino-propoxy)-acetanilide, reference compound], the LD50/DE250 with cardiac β-receptor is recorded as 28. Also, the “Heartbeat Frequency x ± sx” value with cardiac β-receptor (0.5 mg/kg i.v. infusion) worked out at 307 ± 7 beats/min; in the data set on cardiac β-receptor (1.0 mg/kg i.v. infusion), 264 ± 9 beats/min; with cardiac β-receptor (2.0 mg/kg i.v. infusion) it was 250 ± 4 beats/min; in the data set on cardiac β-receptor (5.0 mg/kg i.v. infusion), 246 ± 7 beats/min; in the data set with cardiac β-receptor (10.0 mg/kg i.v. infusion), 217 ± 4 beats/min; with cardiac β-receptor (20.0 mg/kg i.v. infusion), 225 ± 6 beats/min. The compound further returned a DE250 in the data set with cardiac β-receptor of 2.5 mg/kg i.v.

Source of the values: patent publication US3982012A, “4-Hydroxy-benzimidazole compounds and therapeutic compositions” (Boehringer Mannheim G.m.b.H., priority 1974, dated 1976).
